Twelve compounds from ChEMBL document CHEMBL1133927, “Antimalarial t-butylperoxyamines” (Bioorg Med Chem Lett, 2001) can be followed below.

The source made the active and inactive calls. The rule behind the calls is not given here.

In test [1] the test system is Mus musculus. The experiment in a line: In vivo antimalarial activity against Plasmodium berghei in mice (Mus musculus); Active at 160 mg/kg. It is filed as functional, organism-based. More on the design: dose 160 mg/kg.
Test [2] has as its system Mus musculus. As to the kind of experiment: Mean survival time of mice (Mus musculus) infected with Plasmodium berghei after administration of compound at the dose of 40 mg/kg. It is filed as functional.
Test [3] deals with Mus musculus. As to the kind of experiment: Mean survival time of mice (Mus musculus) infected with Plasmodium berghei after administration of compound at the dose of 80 mg/kg. The class given is functional.
For test [4], the system named is Mus musculus. As to the kind of experiment: Mean survival time of mice (Mus musculus) infected with Plasmodium berghei after administration of compound at the dose of 160 mg/kg. The class given is functional.
The subject of test [5] is Mus musculus. The experiment in a line: Mean survival time of mice (Mus musculus) infected with Plasmodium berghei after administration of compound at the dose of 20 mg/kg. The class given is functional.
In test [6] the test system is Plasmodium falciparum. The experiment in a line: (§1) In vitro schizont maturation inhibition for chloroquine-sensitive Plasmodium falciparum FJB D9. The class given is functional, organism-based.
Test [7] has as its system Plasmodium falciparum. The experiment in a line: (§2) In vitro schizont maturation inhibition for chloroquine-sensitive Plasmodium falciparum FSH 14. The class given is functional, organism-based.
The subject of test [8] is Plasmodium falciparum. The experiment in a line: (§3) In vitro total parasite growth inhibition for chloroquine-sensitive Plasmodium falciparum FJB D9. The class given is functional, organism-based.
The subject of test [9] is Plasmodium falciparum. As to the kind of experiment: (§4) In vitro total parasite growth inhibition for chloroquine-sensitive Plasmodium falciparum FSH 14. It is filed as functional, organism-based.
For test [10], the system named is Plasmodium falciparum. The description is as §1. The class given is functional.
Test [11] deals with Plasmodium falciparum. The test is described as §2. The class given is functional.
For test [12], the system named is Plasmodium falciparum. The test is described as §3. It is filed as functional.
The subject of test [13] is Plasmodium falciparum. Described as §4. The class given is functional.
Test [14] has as its system Mus musculus. As to the kind of experiment: In vivo antimalarial activity against Plasmodium berghei in mice (Mus musculus); Inactive. It is filed as functional, organism-based.
For test [15], the system named is Mus musculus. As to the kind of experiment: In vivo antimalarial activity against Plasmodium berghei in mice (Mus musculus); Active at 80 and 160 mg/kg. The class given is functional, organism-based. Also on record: dose 160 mg/kg.
Test [16] concerns Mus musculus. As to the kind of experiment: In vivo antimalarial activity against Plasmodium berghei in mice (Mus musculus); Active from 40 mg/kg. More on the design: dose 40 mg/kg. It is filed as functional, organism-based.
In test [17] the test system is Mus musculus. As to the kind of experiment: In vivo antimalarial activity against Plasmodium berghei in mice (Mus musculus); In active. The class given is functional, organism-based.

Consider `CC(C)(C)OOCN(Cc1ccccc1)Cc1cccs1`, for which the outcome in [1] was Active. In addition, the Mean survival time in test [2] came to 6.6 days; in test [3] it was 10.2 days; in test [4], 14 days; in [5], 5.8 days. Also, the IC50 in test [6] amounted to 0.9 uM well-1; in test [7] it was 0.5 uM well-1; in test [8], 2.7 uM well-1; in [9] it was 2.2 uM well-1. Further, the IC90 in test [10] amounted to 6 uM well-1; in test [11] it was 11.5 uM well-1; in test [12], 4.8 uM well-1; in [13], 12 uM well-1.
For `CC(C)(C)OOCN1CCCCC1`, the Mean survival time was determined as 6.6 days in test [2], 8.2 days in test [3], 10.2 days in test [4] and 5.2 days in [5]. The result in test [14] was inactive. Moreover, the IC50 was determined as 3.6 uM well-1 in test [6], 2.9 uM well-1 in test [7], 5.5 uM well-1 in test [8] and 5 uM well-1 in test [9]. The IC90 in [10] is on record as 22.5 uM well-1; in test [11], 24 uM well-1; in test [12], greater than 25 uM well-1; in test [13], greater than 25 uM well-1.
On to `CC(C)(C)OOCN1CCCC1`, for which the result in test [1] was Active. Also, the Mean survival time in [2] worked out at 7 days; in [3] it was 9.8 days; in [4] it was 11.8 days; in [5] it was 5.4 days. Besides, the IC50 in test [6], in test [7], in test [8] and in [9] was greater than 25 uM well-1 throughout. The IC90 in [10], in [11], in test [12] and in [13] was greater than 25 uM well-1 in each case.
On to `CC(C)(C)OOCN(Cc1ccccc1)Cc1ccco1`, for which the Mean survival time in [2] was 7.2 days; in test [3], 10.8 days; in test [4], 12 days; in test [5], 6.4 days. In addition, the result in test [14] was inactive. Moreover, the IC50 came out at 1.45 uM well-1 in test [6], 1.35 uM well-1 in test [7], 2.1 uM well-1 in test [8] and 2.25 uM well-1 in [9]. Besides, the IC90 is on record as 2.8 uM well-1 in test [10], 4.5 uM well-1 in test [11], 5.5 uM well-1 in test [12] and 5.4 uM well-1 in test [13].
With `CC(C)(C)OOCN(CCO)CCO`, in test [15], the outcome was Active. Besides, the Mean survival time in test [2] stood at 11.6 days; in [3] it was 12.8 days; in [4], 14 days; in test [5], 10.2 days. Moreover, the IC50 in test [6] is 22 uM well-1; in test [7], 10 uM well-1; in [8], greater than 25 uM well-1; in test [9] it was greater than 25 uM well-1. The IC90 in [10], in test [11], in test [12] and in test [13] was greater than 25 uM well-1 in each case.
For `C[C@@H]1CC[C@H]2[C@@H](C)C(=O)O[C@@H]3O[C@@]4(C)CC[C@@H]1[C@]32OO4` [ARTEMISININ], the outcome in [16] was Active. The compound also had a Mean survival time in [5] of 10.8 days. For the same compound, the IC50 in [6] amounted to 0.01 uM well-1; in test [7], 0.01 uM well-1; in test [8], 0.015 uM well-1; in test [9] it was 0.01 uM well-1. Besides, the IC90 in test [10] is 0.028 uM well-1; in test [11], 0.028 uM well-1; in test [12], 0.03 uM well-1; in test [13], 0.029 uM well-1.
In the case of `CC(C)=CCCC(C)CCN(CCO)COOC(C)(C)C` (stereo not drawn), the outcome in [1] was Active. In addition, the Mean survival time amounted to 7.3 days in test [2], 11.2 days in test [3], 15 days in test [4] and 6.2 days in test [5]. In addition, the IC50 in [6] was 3.2 uM well-1; in test [7], 1.4 uM well-1; in [8], 7.8 uM well-1; in [9] it was 3.8 uM well-1. The IC90 in [10], in test [11], in test [12] and in [13] was greater than 25 uM well-1 throughout.
Take `CC(C)=CCCC(C)CCN(COOC(C)(C)C)Cc1ccccc1` (stereo not drawn): in test [1], the result was Active. The Mean survival time in test [2] was 6.8 days; in test [3], 10.8 days; in test [4] it was 12.2 days; in [5], 5.2 days. Further, the IC50 amounted to 1.6 uM well-1 in test [6], 1.6 uM well-1 in [7], 4.4 uM well-1 in [8] and 2.5 uM well-1 in test [9]. Moreover, the IC90 in [10] came out at 9 uM well-1; in [11], 10 uM well-1; in test [12], 10 uM well-1; in test [13] it was 12 uM well-1.
On to `COC1=CC=C2[C@H]3Cc4ccc(OC)c5c4[C@@]2(CCN3COOC(C)(C)C)[C@H]1O5`, for which the result in test [17] was inactive. For the same compound, the Mean survival time stood at 40 days in test [2], 6.8 days in test [3], 7.2 days in [4] and 5.2 days in test [5]. Moreover, the IC50 in test [6] is listed as 0.135 uM well-1; in test [7], 0.5 uM well-1; in [8], 1.8 uM well-1; in test [9], 0.45 uM well-1. Besides, the IC90 in test [10] was 0.47 uM well-1; in test [11], 0.92 uM well-1; in test [12], 6.4 uM well-1; in test [13], 5 uM well-1.
`CC(C)(C)OOCN1CCOCC1`: the Mean survival time in test [2] turned out to be 7.6 days; in [3], 8.8 days; in test [4], 11.4 days; in [5] it was 6.8 days. Also, the result in test [14] was inactive. The IC50 is 0.058 uM well-1 in [6], 0.064 uM well-1 in [7], 0.15 uM well-1 in [8] and 0.16 uM well-1 in [9]. The IC90 is reported as 2.6 uM well-1 in [10], 2.9 uM well-1 in test [11], 3 uM well-1 in test [12] and 2.15 uM well-1 in test [13].
As to `CC(C)(C)OOCN(C1CCCCC1)C1CCCCC1`, the outcome in test [1] was Active. Further, the Mean survival time in test [2] stood at 8.6 days; in [3], 9.8 days; in test [4] it was 13.4 days; in test [5], 7.6 days. Moreover, the IC50 in test [6] was 1.5 uM well-1; in [7], 2.1 uM well-1; in [8], 5 uM well-1; in [9], 5 uM well-1. Moreover, the IC90 in test [10] is listed as 21 uM well-1; in test [11], greater than 25 uM well-1; in test [12] it was 25 uM well-1; in test [13], greater than 25 uM well-1.
As for `CCN(CC)COOC(C)(C)C`, the Mean survival time in test [2] came to 8.4 days; in [3], 9.4 days; in test [4] it was 12.2 days; in test [5] it was 7.2 days. Also, the outcome in [14] was inactive. Moreover, the IC50 in test [6], in test [7], in test [8] and in test [9] was greater than 25 uM well-1 in each case. Moreover, the IC90 in [10], in [11], in test [12] and in [13] was greater than 25 uM well-1 in each case.
